From ChEMBL document CHEMBL4152334, “Synthesis, molecular docking and biological evaluation of novel phthaloyl derivatives of 3-amino-3-aryl propionic acids as inhibitors of Trypanosoma cruzi trans-sialidase” (2018)

Columns and labels:
[1] = biological target: T1, Trans-sialidase (Trypanosoma cruzi) (UniProt Q26964); assay: Inhibition of Trypanosoma cruzi trans-sialidase at 1 mM assessed as reduction of 3'-sialyl-N-acetyllactosamine formation at 1 mM using N-acetyllactosamine as substrate and 3-sialyl-lactose as donor incubated for 15 mins by HPAEC-PAD relative to control
T1 sequence (whole entry): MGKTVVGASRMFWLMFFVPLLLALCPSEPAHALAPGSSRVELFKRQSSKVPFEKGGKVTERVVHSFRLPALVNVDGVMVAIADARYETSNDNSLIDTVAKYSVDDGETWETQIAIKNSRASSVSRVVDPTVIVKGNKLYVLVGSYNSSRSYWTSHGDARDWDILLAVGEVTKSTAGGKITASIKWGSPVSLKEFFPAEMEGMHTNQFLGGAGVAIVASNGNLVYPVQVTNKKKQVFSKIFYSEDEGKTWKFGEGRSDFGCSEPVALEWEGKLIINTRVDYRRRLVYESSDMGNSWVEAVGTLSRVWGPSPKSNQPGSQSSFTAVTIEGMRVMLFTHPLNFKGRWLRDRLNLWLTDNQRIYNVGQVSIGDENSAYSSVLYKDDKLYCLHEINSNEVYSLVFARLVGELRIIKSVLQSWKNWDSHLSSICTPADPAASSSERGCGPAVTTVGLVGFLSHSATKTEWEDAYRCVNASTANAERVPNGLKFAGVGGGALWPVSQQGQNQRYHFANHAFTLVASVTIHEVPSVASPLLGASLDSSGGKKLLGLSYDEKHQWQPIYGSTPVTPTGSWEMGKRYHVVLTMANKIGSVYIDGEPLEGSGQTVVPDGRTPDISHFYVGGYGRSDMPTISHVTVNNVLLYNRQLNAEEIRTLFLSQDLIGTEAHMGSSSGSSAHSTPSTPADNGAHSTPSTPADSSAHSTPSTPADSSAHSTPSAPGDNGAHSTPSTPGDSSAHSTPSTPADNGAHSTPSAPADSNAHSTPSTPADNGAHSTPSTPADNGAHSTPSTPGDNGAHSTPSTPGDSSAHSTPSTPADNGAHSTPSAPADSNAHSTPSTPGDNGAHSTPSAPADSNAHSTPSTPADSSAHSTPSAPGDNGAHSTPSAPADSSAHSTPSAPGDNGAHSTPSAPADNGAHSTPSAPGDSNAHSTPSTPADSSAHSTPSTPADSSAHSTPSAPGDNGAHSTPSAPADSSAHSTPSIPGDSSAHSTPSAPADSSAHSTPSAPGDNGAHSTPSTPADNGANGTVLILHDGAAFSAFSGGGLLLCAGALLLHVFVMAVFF

[2] = test system: Trypanosoma cruzi; assay: Trypanocidal activity against trypomastigote stage of Trypanosoma cruzi NINOA infected in NIH mouse blood assessed as parasite lysis at 10 ug/ml after 24 hrs by optical microscopic method relative to control; assay type: functional
[3] = test system: Trypanosoma cruzi; assay: Trypanocidal activity against trypomastigote stage of Trypanosoma cruzi NINOA infected in NIH mouse blood assessed as […] parasite lysis after 24 hrs by optical microscopic method; assay type: functional
[4] = test system: Trypanosoma cruzi; assay: Trypanocidal activity against trypomastigote stage of Trypanosoma cruzi INC-5 infected in NIH mouse blood assessed as parasite lysis at 10 ug/ml after 24 hrs by optical microscopic method relative to control; assay type: functional
[5] = test system: Trypanosoma cruzi; assay: Trypanocidal activity against trypomastigote stage of Trypanosoma cruzi INC-5 infected in NIH mouse blood assessed as parasite lysis after 24 hrs by optical microscopic method; assay type: functional; conditions: INC-5, Blood

Row | Compound | inhibition [1] [%] | Activity [2] [%] | LC50 [3] [µM] | Activity [4] [%] | LC50 [5] [µM]
1 | NC(CC(=O)O)c1ccc(O)cc1 (stereo not given) | 1.4 | 50 | 152 | 76 | 127
2 | O=C(O)CC(c1ccco1)N1C(=O)c2ccc(C(=O)O)cc2C1=O (stereo not given) | 19.2 | 77 | 77.6 | 55 | 102
3 | Cc1ccc2c(c1)C(=O)N(C(CC(=O)O)c1ccc3ccccc3c1)C2=O (stereo not given) | 86.9 | 63 | 52.7 | 65 | 46.2
4 | O=C(O)CC(c1ccc2ccccc2c1)N1C(=O)c2ccccc2C1=O (stereo not given) | 65.8 | 57 | 97.3 | 62 | 117
